The test system of one data set is Rhipicephalus sanguineus. Briefly: Rhipicephalus sanguineus in vitro contact test with adult brown dog ticks. The data set is classed as in vivo. The conditions noted are these: application rate 5 μg/cm^2 (500 g/ha), after 48 h, dead or moribund ticks. The protocol:
After the solvent has evaporated off, the tubes are populated with 5-10 adult dog ticks (Rhipicephalus sanguineus), sealed with a perforated plastic lid and incubated in a horizontal position in the dark at room temperature and ambient humidity. After 48 h, efficacy is determined. To this end, the ticks are knocked to the base of the tube and incubated on a hotplate at 45-50° C. for not more than 5 min. Ticks which remain motionless on the base or move in such an uncoordinated manner that they are unable to deliberately avoid the heat by climbing upwards are considered to be dead or moribund.

The next data set concerns Spodoptera frugiperda. The data set can be described thus: Spodoptera frugiperda spray test. To be noted: caterpillars on maize leaf discs, after 7 days. The data set is classed as in vivo. As for the experimental part: Solvent: 78.0 parts by weight of acetone • • 1.5 parts by weight of dimethylformamide Emulsifier: alkylaryl polyglycol ether […] To produce further test concentrations, the formulation is diluted with emulsifier-containing water. Leaf discs of maize (Zea mays) are sprayed with an active compound formulation of the desired concentration and, after drying, populated with caterpillars of the armyworm (Spodoptera frugiperda).

Data set [1] has as its system cattle ticks (Boophilus microplus) Parkhurst strain, SP-resistant. The data set can be described thus: Boophilus microplus dip test. The data set is classed as in vivo. The conditions noted are these: application rate 100 ppm, after 7 days, laying of fertile eggs. As for the experimental part: Test animals: cattle ticks (Boophilus microplus) Parkhurst strain, SP-resistant
Solvent: dimethyl sulfoxide
10 mg of active ingredient are dissolved in 0.5 ml of dimethyl sulfoxide. To produce a suitable formulation, the active ingredient solution is diluted with water to the concentration desired in each case.
This active ingredient formulation is pipetted into tubes. 8-10 engorged adult female cattle ticks (Boophilus microplus) are transferred into a further tube with holes. The tube is immersed into the active ingredient formulation, and all the ticks are completely wetted. After the liquid has run out, the ticks are transferred on filter disks into plastic dishes and stored in a climate-controlled room.
Efficacy is assessed after 7 days by laying of fertile eggs. Eggs which are not visibly fertile are stored in a climate-controlled cabinet until the larvae hatch after about 42 days. An efficacy of 100% means that none of the ticks has laid any fertile eggs; 0% means that all the eggs are fertile.

Data set [2] in a line: logP determination by HPLC on reversed-phase column (EEC Directive 79/831 Annex V.A8). The data set is classed as physicochemical. To be noted: Table 1; HPLC C18, acetonitrile/water with formic acid.
The subject of the next data set is Tetranychus urticae. The data set can be described thus: Tetranychus urticae spray test, OP-resistant. The data set is classed as in vivo. To be noted: all stages on bean leaf discs, after 6 days. As for the experimental part:
Solvent: 78.0 parts by weight of acetone • • 1.5 parts by weight of dimethylformamide Emulsifier: alkylaryl polyglycol ether […] To produce further test concentrations, the formulation is diluted with emulsifier-containing water. Discs of bean leaves (Phaseolus vulgaris) infested with all stages of the greenhouse red spider mite (Tetranychus urticae) are sprayed with an active ingredient formulation of the desired concentration.

The test system of the next data set is Lucilia cuprina. Briefly: Lucilia cuprina test. The data set is classed as in vivo. To be noted: application rate 100 ppm, L1 larvae, kill after 2 days. In outline:
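About 20 L1 larvae were placed in vessels of minced horsemeat containing compound, formulated in dimethyl sulfoxide and diluted with water to the test concentration. Kill (%) was scored after 2 days; 100% means all larvae dead, 0% none.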

Another data set relates to Musca domestica. Briefly: Musca domestica test. The data set is classed as in vivo. To be noted: application rate 100 ppm, adult houseflies, kill after 2 days. In a few lines:
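Compound dissolved in DMSO (10 mg per 0.5 ml), diluted with water to test concentration and applied to a sugar-solution sponge. Vessels held 10 adult houseflies; percent kill scored after 2 days (100% = all dead).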

Data set [3] deals with Ctenocephalides felis. Briefly: Ctenocephalides felis in vitro contact test with adult cat fleas. The data set is classed as in vivo. The conditions noted are these: application rate 5 μg/cm^2 (500 g/ha), after 48 h, dead or moribund fleas. In a few lines:
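Tubes were coated with compound, and after the solvent dried off, 5–10 adult cat fleas were added to each. Tubes were kept horizontal at room temperature and ambient humidity for 48 h. Fleas that stayed motionless or moved uncoordinated after being knocked down were scored as dead or moribund.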

The test system of data set [4] is Ctenocephalides felis. The data set can be described thus: Ctenocephalides felis oral test. The data set is classed as in vivo. To be noted: application rate 100 ppm in citrated cattle blood, kill after 2 days. The text has this: Solvent: dimethyl sulfoxide […] Dilution with citrated cattle blood gives the desired concentration. About 20 unfed adult cat fleas (Ctenocephalides felis) are placed into a chamber which is closed at the top and bottom with gauze. A metal cylinder whose bottom end is closed with parafilm is placed onto the chamber. The cylinder contains the blood/active ingredient formulation, which can be imbibed by the fleas through the parafilm membrane.

The subject of the next data set is Boophilus microplus. Briefly: Boophilus microplus injection test. The data set is classed as in vivo. The conditions noted are these: application rate 20 μg/animal, after 7 days, laying of fertile eggs. As for the experimental part: Solvent: dimethyl sulfoxide […] The animals are transferred into dishes and kept in a climate-controlled room. Efficacy is assessed after 7 days by laying of fertile eggs. Eggs which are not visibly fertile are stored in a climate-controlled cabinet until the larvae hatch after about 42 days.

Another data set concerns Phaedon cochleariae. The data set can be described thus: Phaedon cochleariae spray test. The conditions noted are these: larvae on Chinese cabbage leaf discs, after 7 days. The data set is classed as in vivo. As for the experimental part: Solvent: 78.0 parts by weight of acetone • • 1.5 parts by weight of dimethylformamide Emulsifier: alkylaryl polyglycol ether […] To produce further test concentrations, the formulation is diluted with emulsifier-containing water. Discs of Chinese cabbage leaves (Brassica pekinensis) are sprayed with an active ingredient formulation of the desired concentration and, after drying, populated with larvae of the mustard beetle (Phaedon cochleariae).

In another data set the test system is Meloidogyne incognita. Briefly: Meloidogyne incognita test. The data set is classed as in vivo. The conditions noted are these: application rate 20 ppm, nematicidal efficacy by formation of galls on lettuce after 14 days. The protocol: Solvent: 125.0 parts by weight of acetone
To produce a suitable active ingredient formulation, 1 part by weight of active ingredient is mixed with the stated amount of solvent and the concentrate is diluted to the desired concentration with water.
Vessels are filled with sand, active ingredient solution, an egg/larvae suspension of the southern root-knot nematode (Meloidogyne incognita) and lettuce seeds. The lettuce seeds germinate and the plants develop. The galls develop on the roots.
After 14 days, the nematicidal efficacy in % is determined by the formation of galls. 100% means that no galls were found; 0% means that the number of galls on the treated plants corresponds to the untreated control.

Take `Cc1cc(C(F)(C(F)(F)F)C(F)(F)F)cc(C)c1-n1cc(-c2ccc(Cl)c(NC(=O)c3ccncc3)c2)cn1` [Example 2]: the efficacy (in the data set with Rhipicephalus sanguineus; in the data set with Spodoptera frugiperda (application rate 100 g/ha); with Spodoptera frugiperda (application rate 500 g/ha); in data set [1]; with Tetranychus urticae (application rate 100 g/ha); with Tetranychus urticae (application rate 500 g/ha)) was 100% each time. The efficacy with Lucilia cuprina, in the data set with Musca domestica, in the data set on Ctenocephalides felis [3], in the data set with Ctenocephalides felis [4], in the data set on Boophilus microplus and in the data set on Phaedon cochleariae (application rate 500 g/ha) was 100% in each case. The lgP result in data set [2] is “lgP 4.41”.

Turning to `O=C(Nc1ccc(F)c(-c2cnn(-c3c(Br)cc(C(F)(C(F)(F)F)C(F)(F)F)cc3C(F)(F)F)c2)c1)c1ccncc1` [Example 2-13], the efficacy is listed as 80% with Rhipicephalus sanguineus; 100% with Spodoptera frugiperda (application rate 100 g/ha); 100% in data set [1]; 90% in the data set on Tetranychus urticae (application rate 100 g/ha); 100% in the data set on Lucilia cuprina; 100% in the data set on Musca domestica. Moreover, the efficacy in the data set on Ctenocephalides felis [3] was determined as 80%; with Ctenocephalides felis [4] it was 100%; in the data set with Boophilus microplus it was 100%; in the data set with Phaedon cochleariae (application rate 100 g/ha), 100%.

For the compound `Cc1cc(C(F)(C(F)(F)F)C(F)(F)F)cc(C(F)(F)F)c1-n1cc(-c2cc(NC(=O)c3ccc(C#N)nc3)ccc2F)cn1` [Example 2-3], the efficacy in the data set with Spodoptera frugiperda (application rate 100 g/ha) turned out to be 100%; in the data set with Tetranychus urticae (application rate 100 g/ha), 90%; in the data set on Lucilia cuprina it was 100%; with Musca domestica it was 100%; in the data set on Ctenocephalides felis [4], 100%; with Boophilus microplus it was 100%. For the same compound, the efficacy with Meloidogyne incognita was 90%; in the data set with Phaedon cochleariae (application rate 100 g/ha) it was 100%.

Regarding `Cc1cc(C(F)(C(F)(F)F)C(F)(F)F)cc(C(F)(F)F)c1-n1cc(-c2cc(NC(=O)c3ccc(Cl)nc3)ccc2F)cn1` [Example 2-4], the efficacy was determined as 100% in the data set with Spodoptera frugiperda (application rate 100 g/ha); 90% in the data set on Lucilia cuprina; 95% with Ctenocephalides felis [4]; 100% with Boophilus microplus; 90% with Meloidogyne incognita; 100% in the data set on Phaedon cochleariae (application rate 100 g/ha).

The values above are taken from US10202351B2, “Pyrazolyl derivatives as pest control agents” (BAYER ANIMAL HEALTH GMBH, priority 2015, dated 2019).
